pKi: −log10 of the molar value.
Experiments:
[1] = molecular target: T1, Tissue alpha-L-fucosidase (Bos taurus, UniProt Q2KIM0); assay: Ki value against bovine alpha-L-fucosidase
T1 sequence (Q2KIM0 whole entry): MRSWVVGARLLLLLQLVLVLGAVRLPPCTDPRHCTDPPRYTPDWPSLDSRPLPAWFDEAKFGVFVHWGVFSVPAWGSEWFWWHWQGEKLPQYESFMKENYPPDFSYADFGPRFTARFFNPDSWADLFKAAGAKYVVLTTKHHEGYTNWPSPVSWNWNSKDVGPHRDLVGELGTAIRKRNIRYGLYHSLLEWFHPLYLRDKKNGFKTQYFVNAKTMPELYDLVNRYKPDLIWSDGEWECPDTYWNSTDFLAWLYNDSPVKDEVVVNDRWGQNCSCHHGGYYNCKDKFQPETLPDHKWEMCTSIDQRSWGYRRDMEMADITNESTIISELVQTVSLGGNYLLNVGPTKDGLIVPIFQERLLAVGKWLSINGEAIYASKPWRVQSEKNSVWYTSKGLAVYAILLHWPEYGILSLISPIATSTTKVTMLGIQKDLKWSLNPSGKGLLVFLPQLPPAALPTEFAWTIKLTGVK

[2] = molecular target: T2, Beta-galactosidase (Bos taurus) (UniProt Q58D55); assay: Percent inhibition of beta-galactosidase of bovine liver at 1000 uM
T2 sequence (whole entry): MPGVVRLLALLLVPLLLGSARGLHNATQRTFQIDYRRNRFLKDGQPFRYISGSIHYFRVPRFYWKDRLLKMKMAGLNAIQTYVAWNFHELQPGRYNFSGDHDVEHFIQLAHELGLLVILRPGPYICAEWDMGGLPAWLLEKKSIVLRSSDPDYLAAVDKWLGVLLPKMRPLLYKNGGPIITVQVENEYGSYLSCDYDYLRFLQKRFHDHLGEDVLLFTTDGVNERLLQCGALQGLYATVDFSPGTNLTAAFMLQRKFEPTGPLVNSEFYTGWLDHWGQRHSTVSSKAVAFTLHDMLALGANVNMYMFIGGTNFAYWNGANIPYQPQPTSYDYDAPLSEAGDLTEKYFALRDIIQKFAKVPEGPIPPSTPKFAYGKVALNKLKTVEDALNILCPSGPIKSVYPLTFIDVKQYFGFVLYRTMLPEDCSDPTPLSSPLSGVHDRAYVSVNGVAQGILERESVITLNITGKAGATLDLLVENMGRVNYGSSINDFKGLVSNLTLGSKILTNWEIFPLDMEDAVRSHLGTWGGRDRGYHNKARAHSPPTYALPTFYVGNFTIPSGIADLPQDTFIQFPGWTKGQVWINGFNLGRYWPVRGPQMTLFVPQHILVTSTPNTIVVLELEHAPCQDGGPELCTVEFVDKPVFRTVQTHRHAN

[3] = molecular target: T3, Beta-galactosidase (Rattus norvegicus) (UniProt D3ZUM4); assay: Percent inhibition of beta-galactosidase of rat epididymis at 1000 uM
T3 sequence (whole entry): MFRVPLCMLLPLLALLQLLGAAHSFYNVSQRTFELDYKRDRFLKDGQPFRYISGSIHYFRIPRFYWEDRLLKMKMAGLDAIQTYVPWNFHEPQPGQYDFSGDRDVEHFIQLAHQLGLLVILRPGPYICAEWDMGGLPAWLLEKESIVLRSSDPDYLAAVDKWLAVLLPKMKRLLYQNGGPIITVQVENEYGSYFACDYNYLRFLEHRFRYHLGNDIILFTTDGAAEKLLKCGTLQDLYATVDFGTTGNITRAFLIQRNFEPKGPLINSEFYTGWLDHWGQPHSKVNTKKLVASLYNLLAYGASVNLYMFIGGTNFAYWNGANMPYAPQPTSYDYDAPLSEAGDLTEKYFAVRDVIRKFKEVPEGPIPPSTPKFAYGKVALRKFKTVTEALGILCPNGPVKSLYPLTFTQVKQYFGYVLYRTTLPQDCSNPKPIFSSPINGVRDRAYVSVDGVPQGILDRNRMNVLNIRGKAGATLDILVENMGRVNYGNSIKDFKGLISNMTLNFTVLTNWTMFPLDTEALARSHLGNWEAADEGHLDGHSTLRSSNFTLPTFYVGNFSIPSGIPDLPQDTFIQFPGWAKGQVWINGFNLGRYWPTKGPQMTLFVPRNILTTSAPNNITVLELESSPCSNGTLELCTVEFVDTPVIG

[4] = molecular target: T4, Alpha-galactosidase C (Aspergillus niger) (UniProt Q9UUZ4); assay: Percent inhibition of alpha-galactosidase of Aspergillus niger at 1000 uM
T4 sequence (whole entry): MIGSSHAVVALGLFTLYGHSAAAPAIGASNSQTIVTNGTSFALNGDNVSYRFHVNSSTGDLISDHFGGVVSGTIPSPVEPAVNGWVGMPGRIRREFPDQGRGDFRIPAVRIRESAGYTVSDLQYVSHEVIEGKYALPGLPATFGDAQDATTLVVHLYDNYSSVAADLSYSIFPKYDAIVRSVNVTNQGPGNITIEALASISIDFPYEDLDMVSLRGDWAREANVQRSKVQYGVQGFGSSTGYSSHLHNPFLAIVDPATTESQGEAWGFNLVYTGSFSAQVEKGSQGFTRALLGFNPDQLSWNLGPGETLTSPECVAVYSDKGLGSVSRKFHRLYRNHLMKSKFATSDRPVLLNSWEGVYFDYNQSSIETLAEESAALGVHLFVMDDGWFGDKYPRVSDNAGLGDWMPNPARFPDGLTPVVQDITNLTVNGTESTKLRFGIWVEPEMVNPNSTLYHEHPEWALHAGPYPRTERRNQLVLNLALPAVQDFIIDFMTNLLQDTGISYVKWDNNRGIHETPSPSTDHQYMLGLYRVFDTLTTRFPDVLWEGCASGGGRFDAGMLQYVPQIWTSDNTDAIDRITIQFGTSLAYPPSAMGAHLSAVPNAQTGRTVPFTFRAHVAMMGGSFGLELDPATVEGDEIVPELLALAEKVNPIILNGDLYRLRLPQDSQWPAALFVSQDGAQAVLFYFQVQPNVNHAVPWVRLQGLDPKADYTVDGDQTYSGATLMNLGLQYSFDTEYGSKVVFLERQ

[5] = molecular target: Sucrase-isomaltase, intestinal (Rattus norvegicus) (UniProt P23739); conditions: 1000 uM
[6] = molecular target: Alpha-galactosidase (Coffea arabica) (UniProt Q5DUH8); conditions: 1000 uM
[7] = molecular target: T5, Beta-mannosidase (Rattus norvegicus) (UniProt Q4FZV0); assay: Percent inhibition of beta-mannosidase of rat epididymis at 1000 uM
T5 sequence (whole entry): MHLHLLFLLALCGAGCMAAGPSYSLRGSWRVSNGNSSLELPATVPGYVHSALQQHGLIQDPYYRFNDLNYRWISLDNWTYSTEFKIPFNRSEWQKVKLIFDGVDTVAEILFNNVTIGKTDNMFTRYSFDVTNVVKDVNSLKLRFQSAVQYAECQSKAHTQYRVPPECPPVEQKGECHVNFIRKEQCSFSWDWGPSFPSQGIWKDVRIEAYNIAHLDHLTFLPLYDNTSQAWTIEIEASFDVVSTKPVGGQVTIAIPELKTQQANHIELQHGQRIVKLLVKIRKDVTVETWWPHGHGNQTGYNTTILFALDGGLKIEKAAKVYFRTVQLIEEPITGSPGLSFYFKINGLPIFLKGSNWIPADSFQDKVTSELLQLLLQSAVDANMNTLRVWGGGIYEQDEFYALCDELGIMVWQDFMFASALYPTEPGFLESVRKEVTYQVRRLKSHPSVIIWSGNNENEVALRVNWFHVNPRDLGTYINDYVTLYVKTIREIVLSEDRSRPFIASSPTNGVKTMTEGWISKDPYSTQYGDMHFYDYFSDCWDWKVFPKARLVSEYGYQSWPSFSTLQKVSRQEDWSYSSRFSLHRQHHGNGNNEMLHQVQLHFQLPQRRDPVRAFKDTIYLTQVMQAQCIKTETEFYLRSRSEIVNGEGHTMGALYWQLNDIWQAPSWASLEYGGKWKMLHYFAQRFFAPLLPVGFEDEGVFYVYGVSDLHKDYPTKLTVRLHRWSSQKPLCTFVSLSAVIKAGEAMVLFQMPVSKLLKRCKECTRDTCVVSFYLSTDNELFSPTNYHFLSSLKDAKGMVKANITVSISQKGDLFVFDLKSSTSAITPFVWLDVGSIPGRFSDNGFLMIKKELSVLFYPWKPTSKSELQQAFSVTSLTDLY

[8] = molecular target: T6, Tissue alpha-L-fucosidase (Bos taurus) (UniProt Q2KIM0); conditions: 1000 uM
T6 sequence (whole entry): T1 sequence (Q2KIM0 whole entry)

Chain of Alpha-galactosidase (Coffea arabica) (Q5DUH8 as listed by the source): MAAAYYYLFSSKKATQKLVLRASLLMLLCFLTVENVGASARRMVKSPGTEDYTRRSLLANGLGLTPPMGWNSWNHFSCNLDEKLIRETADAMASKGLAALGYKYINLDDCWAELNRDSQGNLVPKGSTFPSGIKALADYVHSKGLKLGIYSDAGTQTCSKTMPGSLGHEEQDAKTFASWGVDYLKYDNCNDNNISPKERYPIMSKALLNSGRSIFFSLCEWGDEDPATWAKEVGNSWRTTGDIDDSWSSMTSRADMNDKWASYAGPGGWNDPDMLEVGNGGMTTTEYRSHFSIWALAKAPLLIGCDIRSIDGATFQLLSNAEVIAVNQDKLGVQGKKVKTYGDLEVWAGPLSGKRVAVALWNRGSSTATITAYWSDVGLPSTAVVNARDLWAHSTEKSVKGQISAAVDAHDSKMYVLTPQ
Chain of Sucrase-isomaltase, intestinal (Rattus norvegicus) (P23739 1-1013 limits assumed): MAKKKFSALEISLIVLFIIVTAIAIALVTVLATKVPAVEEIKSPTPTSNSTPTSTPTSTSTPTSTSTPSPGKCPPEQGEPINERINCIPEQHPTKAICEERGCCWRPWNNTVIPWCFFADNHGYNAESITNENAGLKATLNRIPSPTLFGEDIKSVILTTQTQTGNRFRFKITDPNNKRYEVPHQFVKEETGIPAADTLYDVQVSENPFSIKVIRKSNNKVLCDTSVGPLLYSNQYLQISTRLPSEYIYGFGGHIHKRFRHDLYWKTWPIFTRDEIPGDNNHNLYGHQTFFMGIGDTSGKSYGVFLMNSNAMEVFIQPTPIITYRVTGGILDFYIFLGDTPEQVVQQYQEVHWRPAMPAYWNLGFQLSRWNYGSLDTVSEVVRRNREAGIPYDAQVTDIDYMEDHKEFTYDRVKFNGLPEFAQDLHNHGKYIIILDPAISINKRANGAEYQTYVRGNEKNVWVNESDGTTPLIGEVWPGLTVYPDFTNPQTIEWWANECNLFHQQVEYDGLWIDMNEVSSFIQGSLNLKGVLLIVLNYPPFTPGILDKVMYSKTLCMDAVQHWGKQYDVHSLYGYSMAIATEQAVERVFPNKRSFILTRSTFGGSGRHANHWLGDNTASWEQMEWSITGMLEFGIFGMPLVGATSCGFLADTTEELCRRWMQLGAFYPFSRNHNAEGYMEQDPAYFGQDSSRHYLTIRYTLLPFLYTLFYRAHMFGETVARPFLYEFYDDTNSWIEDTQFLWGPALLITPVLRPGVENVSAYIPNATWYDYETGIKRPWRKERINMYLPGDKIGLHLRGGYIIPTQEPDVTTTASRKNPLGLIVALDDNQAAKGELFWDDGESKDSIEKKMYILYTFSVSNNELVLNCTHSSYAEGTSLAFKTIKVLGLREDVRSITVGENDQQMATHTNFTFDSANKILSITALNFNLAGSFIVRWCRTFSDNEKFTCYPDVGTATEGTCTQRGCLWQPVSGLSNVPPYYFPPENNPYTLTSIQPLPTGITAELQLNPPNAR
Chain of Sucrase-isomaltase, intestinal (Rattus norvegicus) (P23739 1014-1841 limits assumed): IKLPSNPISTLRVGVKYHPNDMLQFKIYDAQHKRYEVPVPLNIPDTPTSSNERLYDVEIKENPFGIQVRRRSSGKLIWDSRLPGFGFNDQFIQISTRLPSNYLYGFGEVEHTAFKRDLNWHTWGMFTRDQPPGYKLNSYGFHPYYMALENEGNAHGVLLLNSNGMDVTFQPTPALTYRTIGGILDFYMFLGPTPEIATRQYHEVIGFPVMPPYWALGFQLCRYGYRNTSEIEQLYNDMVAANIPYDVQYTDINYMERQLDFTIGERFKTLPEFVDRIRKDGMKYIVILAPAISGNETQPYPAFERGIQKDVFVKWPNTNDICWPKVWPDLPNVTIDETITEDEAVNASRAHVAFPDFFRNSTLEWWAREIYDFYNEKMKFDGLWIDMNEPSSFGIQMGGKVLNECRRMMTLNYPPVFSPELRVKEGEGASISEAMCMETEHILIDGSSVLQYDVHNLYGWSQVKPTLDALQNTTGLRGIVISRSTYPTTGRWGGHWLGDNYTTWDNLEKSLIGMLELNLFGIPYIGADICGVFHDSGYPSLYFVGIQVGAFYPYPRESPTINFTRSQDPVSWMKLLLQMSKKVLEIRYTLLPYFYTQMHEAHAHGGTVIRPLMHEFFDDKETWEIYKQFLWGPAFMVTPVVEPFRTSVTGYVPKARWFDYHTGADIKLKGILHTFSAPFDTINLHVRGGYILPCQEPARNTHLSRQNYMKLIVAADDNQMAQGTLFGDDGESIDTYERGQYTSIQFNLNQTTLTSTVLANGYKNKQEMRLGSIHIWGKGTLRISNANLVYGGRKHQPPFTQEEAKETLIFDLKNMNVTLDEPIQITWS

| pKi [1] | inhibition [2] [%] | inhibition [3] [%] | inhibition [4] [%] | inhibition [5] [%] | inhibition [6] [%] | inhibition [7] [%] | inhibition [8] [%] | Compound |
| --- | --- | --- | --- | --- | --- | --- | --- | --- |
| 8.77 | – | – | – | – | – | – | – | C[C@@H]1NC[C@@H](O)[C@H](O)[C@@H]1O [DEOXYFUCONOJIRIMYCIN] |
| – | < 50 | < 50 | < 50 | < 50 | < 50 | – | – | OC[C@H]1NC[C@@H](O)[C@H](O)[C@@H]1O |
| – | < 50 | < 50 | < 50 | < 50 | < 50 | < 50 | < 50 | OC[C@@H]1NC[C@H](O)[C@@H](O)[C@H]1O |

Source: ChEMBL document CHEMBL1142734, “Biological properties of D- and L-1-deoxyazasugars” (J Med Chem, 2005)
